Patent US20150051558A1, “COMPOSITION AND METHOD FOR CORNEAL PROLIFERATION” (UNIVERSITY OF CENTRAL FLORIDA RESEARCH FOUNDATION, INC., priority 2012, published 2015)
Entries after “also recorded” stand apart in the source; their conditions may differ.

Key:
rat cornea [1] = test: Experiment 1: BrdU staining of cornea after MS-818 ophthalmic drops; format: in vivo
Procedure: (§1) Surgeries were performed to remove the left lachrymal gland from sixteen rats. MS-818 was then administered via ophthalmic drop to both eyes of twelve of the rats divided into three dosage groups, 1 mg/ml, 3 mg/ml, and 10 mg/ml. The remaining four rats served as a control group, receiving drops of phosphate buffered saline. The compound was administered three times over a period of three days. BrdU was administered during this time via intra-peritoneal injection. Rats were euthanized seven days after the first compound administration and underwent perfusion. Eyes were sliced in twenty micron slices using a cryostat. The slices were mounted on glass slides. The slides were then stained with monoclonal mouse anti BrdU primary antibody to test for the incorporation of BrdU into nuclei. TRITC conjugated donkey anti mouse secondary antibody was used to detect the primary antibody. Slides were stained with DAPI to visualize the nuclei. Images were captured of the slices in 100× magnification under TRITC, DAPI and FITC fluorescence.

rat cornea [2] = test: Experiment 2: BrdU staining of cornea after MS-818 ophthalmic drops; format: in vivo
Procedure: as §1, with “According to another example similar to experiment 1, surgeries” for “Surgeries”, “groups, 100 μg/ml, 300 μg/ml, and” for “groups,”, “1” for “1 mg/ml, 3 mg/ml, and 10”

**Q.** With `CN1Cc2nc(N3CCCCC3)ncc2C1=O.O=C(O)/C=C\C(=O)O` [MS-818, 2-piperadino-6-methyl-5-oxo-5,6-dihydro-(7H) pyrrole-[3,4-d]pyrimidine maleate] as the compound, how does the “proliferation in the non-injured eyes vs non-drug receiving control group” value (rat cornea [1]; ophthalmic drops, three dosage groups, preliminary results) read?
**A.** marked increase in proliferation

**Q.** What about the “BrdU positive signaling within the cornea (cell proliferation)” value (rat cornea [1]; rat, eye drop, high dosage (1 mg/ml), three times over three days, euthanized seven days after first administration, non surgical eye, FIG. 1B vs control FIG. 1A) of the same compound?
**A.** significantly increased BrdU positive signaling

**Q.** And the “cell proliferation (BrdU staining) in cornea vs control animal” value (rat cornea [2]; eye drop 100 μg/ml, 300 μg/ml, 1 mg/ml, three times over three days, non surgical eye, FIG. 4)?
**A.** significant increase in cell proliferation over the control animal

**Q.** And the “number of nuclei positive for BrdU per field of view in the cornea” value (rat cornea [2]; eye drop, low, medium and high dose vs control, n=6, FIG. 5)?
**A.** significantly (p<0.05) higher than the control; also recorded: significant and dose dependent increase
